Data set [1] can be described thus: Cytotoxicity against human HFF-1 cells assessed as reduction in cell viability incubated for 120 hrs by MTS assay. In kind it is cell-based. In general terms: Tetrazolium assays rely on reduction of a dye to a coloured formazan, in cell work by metabolically active cells.
A short description of data set [2]: Cytotoxicity against human HepG2 cells assessed as reduction in cell viability incubated for 120 hrs by MTS assay. In kind it is cell-based.
The next data set deals with Leishmania infantum. Description: Antileishmanial activity against Leishmania infantum MHOM/MA/67/ITMAP-263 infected in THP1 cells assessed as reduction in parasite growth incubated for 120 hrs by Giemsa staining based inverted microscopic analysis. Type of data set: functional, organism-based. The following applies: MHOM/MA/67/ITMAP-263, THP-1, 120 h.
For the next data set, the system named is Trypanosoma cruzi. The data set can be described thus: Antitrypanosomal activity against Trypanosoma cruzi (MHOM/CH/00/Tulahuen C2, lacZ) amastigotes infected in HFF-1 cells assessed as reduction in parasite growth incubated for 120 hrs by CPRG/Igepal substrate based photometric method. Type of data set: functional, organism-based. The following applies: MHOM/CH/00/Tulahuen C2, HFF-1, 120 h.

For orientation: CC50 means the concentration giving 50% cytotoxicity. The term IC50 denotes the point on the concentration scale where inhibition reaches its midpoint. `C=C(c1nc(-c2ccccc2)no1)C1(O)C(=O)N(CC)c2ccc(C)cc21` (centres undefined): the values for the 50% cytotoxic concentration (CC50) at 120 h in data set [1] and in data set [2] were > 64 µM and 26.7 µM, respectively. For the same compound, the IC50 stood at 6.01 µM with Leishmania infantum and 16.6 µM in the data set on Trypanosoma cruzi.
As for `C=C(c1nc(-c2ccc(Cl)cc2)no1)C1(O)C(=O)N(CC)c2ccccc21` (centres undefined), the figures for the 50% cytotoxic concentration (CC50) at 120 h in data set [1] and in data set [2] were > 64 µM and 13.8 µM, respectively. Also, the IC50 stood at 4.01 µM in the data set on Leishmania infantum and 23.6 µM in the data set on Trypanosoma cruzi.
With `C=C(c1nc(-c2ccccc2)no1)C1(O)C(=O)N(c2ccccc2)c2ccccc21` (centres undefined), the CC50 at 120 h in data set [1] is 27.9 µM; in data set [2] it was 14.1 µM. Also, the half-inhibitory concentration (IC50) stood at 8.17 µM with Leishmania infantum and 16.2 µM in the data set with Trypanosoma cruzi.
`C=C(c1nc(-c2ccc(OC)cc2)no1)C1(O)C(=O)N(CC)c2ccc(OC)cc21` (centres undefined): the 50% cytotoxic concentration (CC50) at 120 h in data set [1] stood at 54.5 µM; in data set [2] it was 13.6 µM. For the same compound, the 50% inhibitory concentration (IC50) was 22 µM in the data set on Leishmania infantum and > 64 µM in the data set with Trypanosoma cruzi.
The like results for `C=C(c1nc(-c2ccccc2)no1)C1(O)C(=O)N(CC)c2c(Br)cccc21` (centres undefined) were, in that order, 21.5 µM, 22.8 µM, 10.4 µM and > 100 µM.
On to `C=C(c1nc(-c2ccccc2)no1)C(O)c1ccc(S(C)(=O)=O)cc1` (centres undefined), for which the CC50 at 120 h in data set [1] is > 64 µM; in data set [2], 28.7 µM. Further, the half-maximal inhibitory concentration (IC50) in the data set with Leishmania infantum was determined as 8.47 µM; in the data set on Trypanosoma cruzi it was 64.4 µM.
The like results for `C=C(c1nc(-c2ccc(OC)cc2)no1)C1(O)C(=O)N(CC)c2ccc([N+](=O)[O-])cc21` (centres undefined) were, in that order, > 64 µM, 13.6 µM, 25.9 µM and > 64 µM.
The like results for `C=C(c1nc(-c2ccccc2)no1)C1(O)C(=O)N(CC)c2ccc(OC)cc21` (centres undefined) were, in that order, > 64 µM, 13.5 µM, 7.29 µM and > 100 µM.
The matching figures for `C=C(c1nc(-c2ccc([N+](=O)[O-])cc2)no1)C(O)c1cc(OC)c(OC)c(OC)c1` (centres undefined): > 64 µM, 57.3 µM, 52.6 µM and > 64 µM.
Consider `C=C(c1nc(-c2ccc([N+](=O)[O-])cc2)no1)C1(O)C(=O)N(CC)c2ccc(OC)cc21` (centres undefined), for which the CC50 at 120 h in data set [1] amounted to 43.6 µM; in data set [2] it was 5.83 µM. Further, the values for the half-maximal inhibitory concentration (IC50) in the data set with Leishmania infantum and in the data set with Trypanosoma cruzi were 12 µM and > 64 µM, respectively.
For the compound `C=C(c1nc(-c2ccc([N+](=O)[O-])cc2)no1)C(O)c1nccs1` (centres undefined), the 50% cytotoxic concentration (CC50) at 120 h in data set [1] and in data set [2] was > 64 µM in each case. For the same compound, the IC50 in the data set with Leishmania infantum is > 64 µM; in the data set with Trypanosoma cruzi, 37.1 µM.
`C=C(c1nc(-c2ccccc2)no1)C1(O)C(=O)N(CC)c2ccc(F)cc21` (centres undefined): the 50% cytotoxic concentration (CC50) at 120 h is > 64 µM in data set [1] and 9.37 µM in data set [2]. The results for the IC50 in the data set on Leishmania infantum and with Trypanosoma cruzi were 3.51 µM and 14.8 µM, respectively.
The matching figures for `C=C(c1nc(-c2ccccc2)no1)C1(O)C(=O)N(C)c2ccccc21` (centres undefined): 53.8 µM, 6.73 µM, 51.4 µM and > 64 µM.
Regarding `C=C(c1nc(-c2ccc(Cl)cc2)no1)C1(O)C(=O)N(CC)c2ccc(OC)cc21` (centres undefined), the cytotoxic concentration (CC50) at 120 h in data set [1] came out at 40.7 µM; in data set [2] it was 11.5 µM. Also, the IC50 with Leishmania infantum was found to be 5.09 µM; in the data set on Trypanosoma cruzi, 28.4 µM.
Turning to `C=C(c1nc(-c2ccc(OC)cc2)no1)C(O)c1ccccc1` (centres undefined), the values for the half-maximal cytotoxic concentration (CC50) at 120 h in data set [1] and in data set [2] were 55.1 µM and 39.6 µM, respectively. In addition, the values for the IC50 in the data set with Leishmania infantum and in the data set with Trypanosoma cruzi were 11.5 µM and > 100 µM, respectively.
The like results for `C=CCOC1(C(=C)c2nc(-c3ccccc3)no2)C(=O)N(CC)c2ccccc21` (centres undefined) were, in that order, > 64 µM, > 64 µM, 10.7 µM and 12 µM.
Take `C=C(c1nc(-c2ccc(OC)cc2)no1)C1(O)C(=O)N(CC)c2ccccc21` (centres undefined): the results for the cytotoxic concentration (CC50) at 120 h in data set [1] and in data set [2] were > 64 µM and 26.9 µM, respectively. Moreover, the IC50 in the data set with Leishmania infantum was 2.85 µM; with Trypanosoma cruzi, > 64 µM.
Turning to `C=C(c1nc(-c2ccccc2)no1)C(O)/C=C/c1ccccc1` (centres undefined), the 50% cytotoxic concentration (CC50) at 120 h in data set [1] was > 64 µM; in data set [2], 30.3 µM. Moreover, the results for the IC50 in the data set with Leishmania infantum and with Trypanosoma cruzi were 20.6 µM and 55.7 µM, respectively.
The like results for `C=C(c1nc(-c2ccccc2)no1)C1(O)C(=O)N(CC)c2ccc(OC(F)(F)F)cc21` (centres undefined) were, in that order, > 64 µM, 10.4 µM, 11.1 µM and > 100 µM.
Turning to `C=C(c1nc(-c2ccc(OC)cc2)no1)C(O)c1ccccc1[N+](=O)[O-]` (centres undefined), the CC50 at 120 h in data set [1] was 42.2 µM; in data set [2], 10.6 µM. The IC50 in the data set on Leishmania infantum was 2.38 µM; in the data set on Trypanosoma cruzi it was > 100 µM.
The matching figures for `C=C(c1nc(-c2ccc(OC)cc2)no1)C(O)c1ccccc1C(F)(F)F` (centres undefined): > 64 µM, > 64 µM, 8.55 µM and 8.8 µM.
The matching figures for `C=C(c1nc(-c2ccccc2)no1)C1(O)C(=O)N(CC)c2ccc(Cl)cc21` (centres undefined): > 64 µM, 6.78 µM, 2.5 µM and > 100 µM.
The matching figures for `C=C(c1nc(-c2ccc([N+](=O)[O-])cc2)no1)C1(O)C(=O)N(CC)c2ccc([N+](=O)[O-])cc21` (centres undefined): > 64 µM, 7.12 µM, 7.36 µM and > 64 µM.
On to `C=C(c1nc(-c2ccc(Cl)cc2)no1)C1(O)C(=O)N(CC)c2ccc([N+](=O)[O-])cc21` (centres undefined), for which the values for the CC50 at 120 h in data set [1] and in data set [2] were > 64 µM and 10.4 µM, respectively. For the same compound, the IC50 with Leishmania infantum was 6.48 µM; with Trypanosoma cruzi it was > 64 µM.
Take `C=C(c1nc(-c2ccccc2)no1)C(O)c1ccccn1` (centres undefined): the figures for the CC50 at 120 h in data set [1] and in data set [2] were 30.1 µM and 58.6 µM, respectively. Moreover, the half-inhibitory concentration (IC50) in the data set on Leishmania infantum was 17.9 µM; in the data set on Trypanosoma cruzi, > 100 µM.
The like results for `C=C(c1nc(-c2ccccc2)no1)C(O)CCCC` (centres undefined) were, in that order, > 64 µM, > 64 µM, 35.9 µM and 19.3 µM.
The matching figures for `C=C(c1nc(-c2ccccc2)no1)C1(O)C(=O)N(CC)c2c(Cl)cc(Cl)cc21` (centres undefined): > 64 µM, 6.77 µM, 4.1 µM and > 100 µM.
The matching figures for `C=C(c1nc(-c2ccc([N+](=O)[O-])cc2)no1)C(O)c1ccccc1` (centres undefined): > 64 µM, 27.1 µM, 37.5 µM and > 64 µM.
Turning to `C=C(c1nc(-c2ccccc2)no1)C1(O)C(=O)N(Cc2ccccc2)c2ccccc21` (centres undefined), the 50% cytotoxic concentration (CC50) at 120 h was > 64 µM in data set [1] and 19.2 µM in data set [2]. For the same compound, the half-inhibitory concentration (IC50) in the data set on Leishmania infantum was 5.65 µM; in the data set on Trypanosoma cruzi, 10.6 µM.
The matching figures for `C=C(c1nc(-c2ccc(OC)cc2)no1)C(O)c1ccc(C#N)cc1` (centres undefined): > 64 µM, 13.6 µM, 3.89 µM and > 100 µM.
The like results for `C=C(c1nc(-c2ccccc2)no1)C1(O)C(=O)N(CC)c2c(Cl)cccc21` (centres undefined) were, in that order, 62.1 µM, 13.5 µM, 4.85 µM and > 100 µM.

(Values after ChEMBL document CHEMBL4765358, “Discovery of highly potent and selective antiparasitic new oxadiazole and hydroxy-oxindole small molecule hybrids” (Eur J Med Chem, 2020).)
